Assay in all cases: Western blotting, protein expression in oleic acid induced HepG2 cells
Common to all, as to type: cell-based, human
(In general: Immunoblotting shows a protein as a band on a membrane.)

For one test, the system named is APGSL. Conditions: high dose group. The protocol: (§1) The culture, model establishment and drug treatment manners of the cells were operated according to 1.2.3. After completion, cells were collected, cytoplasmic proteins were extracted, and protein electrophoresis was conducted after quantification. Particularly the following methods were used: When the cell confluence reached 70%, 0.5 mM oleic acid was added to treat the cells for 24 h. After completion, the cells were collected and the cytoplasmic protein was extracted, and the protein electrophoresis was conducted after quantification. The electrophoresis method was as follows: After cell culture was completed, the culture plate was taken out, the culture medium in the well was discarded, the pellet was washed twice with PBS, placed onto an ice bath, and added with 100 μL of a protein lysis buffer (RIPA) (PMSF was added into the cell lysis buffer at 1:1000 within few minutes before the use, with a final concentration of 1 mM) per well. After the cells were lysed for about […], the cells were scraped off with a cell scraper, pipetted into a 1.5 mL centrifuge tube (which could be crushed with an ultrasonic cell disruptor for 3-5 times), then centrifuged at 12,000 rpm under 4° C. for 15-20 mM. The supernatant was taken and transferred into a new centrifuge tube for protein quantification or storage at −80° C. Theprotein content was determined by a BCA method, and the operation method was carried out according to the instructions of the kit. After the protein concentration was measured, the protein sample was added with a 5× loading buffer and mixed uniformly at 1:4, then subjected to water bath at 100° C. for […] (entangling with a sealing film to prevent bouncing off), and stored at 4° C. The specific operation method of protein electrophoresis was in accordance with the relevant references. Since each of the molecular weight of the target proteins was within 10-80 KDa except for FASN (the separation gel was prepared according to the following table), the separation gel concentration was selected to be 10%, and the concentration of the FASN protein separation gel was selected to be 6%. A spacer gel was formulated according to the following table, and sample loading was conducted. After completion, electrophoresis should be conducted as soon as possible, where concentration was conducted at 80 v for 30 min, and then electrophoresis was conducted at 120 v until the front edge ran to the lower edge of the separation gel, and the electrophoresis was stopped. 3. Transferring The PVDF membrane was immersed in methanol for 1 min in advance and then soaked with a 1× transfer solution for 10 min. the gel was removed, the excess gel was cut off from top and bottom and left and right, and then the gel was assembled in the order of filter paper-gel-membrane-filter paper from a blackboard to a whiteboard, the bubbles were removed from therebetween, and the assembly was clamped by a clip, and placed in a transfer slot with the black side to black side, and white side to white side. After the completion of the transfer, the PVDF membrane was blocked with a TB ST room-temperature shaker containing 5% skim milk powder for 1 hour. The primary antibody was diluted with TBST containing 5% BSA or 5% skim milk powder (see the antibody instructions for specific dilution multiple). After the end of blocking, the PVDF membrane was incubated with the well-diluted primary antibody overnight at 4° C.

The test system of a further test is APG7. Here is the method:
as §1

A further test deals with Bcl-1. Conditions: high dose group. Here is the method:
(§2) The culture, model establishment and drug treatment manners of the cells were operated according to 1.2.3. After completion, cells were collected, cytoplasmic proteins were extracted, and protein electrophoresis was conducted after quantification. Particularly the following methods were used:
(§3) When the cell confluence reached 70%, 0.5 mM oleic acid was added to treat the cells for 24 h. After completion, the cells were collected and the cytoplasmic protein was extracted, and the protein electrophoresis was conducted after quantification. The electrophoresis method was as follows:
(§4) After cell culture was completed, the culture plate was taken out, the culture medium in the well was discarded, the pellet was washed twice with PBS, placed onto an ice bath, and added with 100 μL of a protein lysis buffer (RIPA) (PMSF was added into the cell lysis buffer at 1:1000 within few minutes before the use, with a final concentration of 1 mM) per well. After the cells were lysed for about […], the cells were scraped off with a cell scraper, pipetted into a 1.5 mL centrifuge tube (which could be crushed with an ultrasonic cell disruptor for 3-5 times), then centrifuged at 12,000 rpm under 4° C. for 15-20 mM. The supernatant was taken and transferred into a new centrifuge tube for protein quantification or storage at −80° C.
(§5) Theprotein content was determined by a BCA method, and the operation method was carried out according to the instructions of the kit. After the protein concentration was measured, the protein sample was added with a 5× loading buffer and mixed uniformly at 1:4, then subjected to water bath at 100° C. for […] (entangling with a sealing film to prevent bouncing off), and stored at 4° C.
(§6) The specific operation method of protein electrophoresis was in accordance with the relevant references. Since each of the molecular weight of the target proteins was within 10-80 KDa except for FASN (the separation gel was prepared according to the following table), the separation gel concentration was selected to be 10%, and the concentration of the FASN protein separation gel was selected to be 6%.
(§7) A spacer gel was formulated according to the following table, and sample loading was conducted. After completion, electrophoresis should be conducted as soon as possible, where concentration was conducted at 80 v for 30 min, and then electrophoresis was conducted at 120 v until the front edge ran to the lower edge of the separation gel, and the electrophoresis was stopped.
3. […]

For a further test, the system named is p62. Conditions: high dose group. The protocol: as §2, §3, §4, §5, §6, §7
3. […]

The text below walks through data of patent US20200368260A1, “USE OF BENZOPYRAN COMPOUND IN PREPARATION OF PRODUCT FOR REGULATING LIPID METABOLISM AND COMPOSITION OF THE SAME” (priority 2019, published 2020).

Turning to `COc1cc(-c2[o+]c3cc(O)cc(O)c3cc2O[C@@H]2O[C@H](CO)[C@@H](O)[C@H](O)[C@H]2O)cc(O)c1O` [petunidin-3-O-β-D glucoside], the “protein expression of APGSL” value in the test with APGSL was “inhibition trend”. For the same molecule, the “protein expression of APG7” value with APG7 (high dose group) is “inhibition trend”; in the test on APG7 (low doses) it was “significant effect”. For the same molecule, the “protein expression of Bcl-1” value in the test on Bcl-1 is recorded as “inhibition trend”. Further, in the test with p62, the “protein expression of p62” value is reported as “inhibition trend”.
In the case of `COc1cc(-c2[o+]c3cc(O)cc(O)c3cc2O[C@@H]2O[C@H](CO)[C@@H](O)[C@H](O)[C@H]2O)cc(OC)c1O` [malvidin-3-O-β-D glucoside], in the test on APGSL, the “protein expression of APGSL” value is listed as “inhibition trend”. Also, the entries for the “protein expression of APG7” value in the test on APG7 (high dose group) and with APG7 (low doses) were “inhibition trend” and “significant effect”, respectively. The “protein expression of Bcl-1” value in the test on Bcl-1 is on record as “inhibition trend”. Moreover, in the test on p62, the “protein expression of p62” value was “inhibition trend”.
